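Briefly, cells in 96-well plates were exposed to five compound concentrations for 48 h, and endpoints were estimated by linear interpolation. Abbreviation: GI50, concentration required for 50% inhibition of growth. Definition used: TGI = concentration required for complete inhibition of growth.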
Tests used:
Test in all cases: growth of human tumour cells (NCI), 48 h
[1] = tested on: HOP-18 NSCLC
[2] = tested on: KM20L2 colon
[3] = tested on: DMS 273 small cell lung
[4] = tested on: LXFL 529 NSCLC
[5] = tested on: RXF-631 renal
[6] = tested on: M19-MEL melanoma
[7] = tested on: MDA-N

For `COc1cc2c(cc1OC(=O)CC(C)O)C1C(OC2=O)C(OC(C)=O)C=C2CCN(C)[C@H]21` (some centres not stated), the TGI [1] was 69.4 µM, the TGI [2] was > 100 µM and the TGI [3] was > 100 µM. The TGI [4] was > 100 µM, the TGI [5] was 93.9 µM and the TGI [6] was > 100 µM.

`CC1=C(N2CC2)C(=O)c2nc3n(c2C1=O)CCC3OC(=O)CCl` (configuration not stated) gave a TGI [7] of 0.056 µM, a TGI [1] of 0.178 µM and a TGI [2] of 0.547 µM. It also gave a TGI [3] of 0.128 µM, a TGI [4] of 0.227 µM and a TGI [6] of 0.266 µM.

For `C[C@]12CCC3[C@@H](CC[C@@H]4c5nonc5CC[C@]34C)C1CCC(=O)N2` (some centres not stated), the TGI [1] was > 100 µM, the TGI [2] was > 100 µM and the TGI [3] was > 100 µM. For the same compound, the TGI [4] was > 100 µM, the TGI [5] was > 100 µM and the TGI [6] was > 100 µM.

In the case of `CS(=O)(=O)Oc1cccc(/C=N/N=C(\N)NO)c1`, the TGI [1] is reported as > 100 µM, the TGI [3] is reported as 65.8 µM and the TGI [4] is reported as > 100 µM. The TGI [6] was > 100 µM.

For `O=C1C=C(Br)c2c(-c3ccccc3)oc3cccc1c23`, the TGI [7] was 66 µM, the TGI [1] was > 100 µM and the TGI [2] was > 100 µM. For the same compound, the TGI [3] was > 100 µM, the TGI [4] was > 100 µM and the TGI [5] was > 100 µM. The TGI [6] was > 100 µM.

For `CCCCNCC(=O)O[C@]1(CC)C(=O)OCc2c1cc1n(c2=O)Cc2cc3ccccc3nc2-1`, the TGI [7] was 23.1 µM, the TGI [1] was 48.9 µM and the TGI [2] was > 100 µM. For the same compound, the TGI [3] was 0.236 µM, the TGI [4] was 56.8 µM and the TGI [5] was 6.9 µM. For the same compound, the TGI [6] was 6.21 µM.

`O=C1C(=O)N(c2ccc(Cl)c(Cl)c2)C(=O)C(=O)C1c1nc2ccccc2s1` was tested, and the TGI [1] was > 100 µM, the TGI [2] was > 100 µM and the TGI [3] was > 100 µM. For the same compound, the TGI [4] was > 100 µM and the TGI [6] was > 100 µM.

`Brc1cccc(C2SCc3nc4ccccc4n32)c1` (configuration not stated) was tested, and the TGI [4] was > 100 µM and the TGI [6] was 49.1 µM.

For `O=C(O)C1(P(=O)(O)O)CC1`, the TGI [1] was > 100 µM, the TGI [2] was > 100 µM and the TGI [3] was > 100 µM. The TGI [4] was > 100 µM and the TGI [6] was > 100 µM.

For `c1ccc2c(C3NCCc4[nH]cnc43)cccc2c1` (configuration not stated), the TGI [1] was > 100 µM, the TGI [2] was > 100 µM and the TGI [3] was > 100 µM. For the same compound, the TGI [4] was > 100 µM and the TGI [6] was > 100 µM.

With `COc1cccc(C=Nc2cc(C)ccn2)c1O.COc1cccc(C=Nc2cc(C)ccn2)c1O.[Cu]` the GI50 [7] was 16.3 µM and the TGI [7] was 41.3 µM.

In the case of `COc1ccc(NC(=O)/C(=N\NC(=O)C[n+]2ccccc2)c2c(O)c3ccc(O)cc3oc2=O)c([N+](=O)[O-])c1`, the TGI [7] is reported as > 100 µM.

`COc1ccc(NC(=O)C/C(C)=N\N=C(N)N)c([N+](=O)[O-])c1` was tested, and the TGI [1] was > 100 µM, the TGI [2] was > 100 µM and the TGI [3] was > 100 µM. For the same compound, the TGI [4] was > 100 µM and the TGI [6] was > 100 µM.

In the case of `C[Si](C)(C)OC1(C#N)C2C3CC4C2C(=O)C2C4C3C21` (configuration not stated), the TGI [1] is reported as > 100 µM, the TGI [2] is reported as > 100 µM and the TGI [3] is reported as > 100 µM. The TGI [4] was > 100 µM and the TGI [6] was > 100 µM.

`C=C1COC(/C=C(\C)CC/C=C(\C)CCl)C1` (configuration not stated) was tested, and the TGI [2] was > 100 µM, the TGI [3] was > 100 µM and the TGI [4] was > 100 µM. The TGI [6] was > 100 µM.

With `c1ccc(SC(CCCCC(Sc2ccccc2)Sc2ccccc2)Sc2ccccc2)cc1` the TGI [2] was > 100 µM, the TGI [3] was > 100 µM and the TGI [4] was > 100 µM. For the same compound, the TGI [5] was > 100 µM and the TGI [6] was > 100 µM.

Compound `O=C(N/N=C/c1ccc2c(c1)CCC2)c1ccccc1O` has a TGI [7] of 64.8 µM.

With `CCCCCCCCCCCC(=O)OCCOCCOCCOCCOCCOCc1ccc(OC)cc1` the TGI [1] was > 100 µM, the TGI [2] was > 100 µM and the TGI [3] was > 100 µM. The TGI [4] was > 100 µM, the TGI [5] was > 100 µM and the TGI [6] was > 100 µM.

In the case of `O=c1cc(-c2ccccc2)[nH]c2cc(O)ccc12`, the TGI [1] is reported as > 100 µM, the TGI [2] is reported as 40.4 µM and the TGI [3] is reported as 87.8 µM. The TGI [4] was > 100 µM, the TGI [5] was > 100 µM and the TGI [6] was 35.3 µM.

With `C=CCOC1OC(CO[Si](C)(C)C(C)(C)C)C(OCc2ccccc2)C(OCc2ccccc2)C1OCc1ccccc1` (configuration not stated) the TGI [7] was > 100 µM.

For `O=S(=O)(c1ccccc1)C(CN1CCCCC1)S(=O)(=O)c1ccccc1`, the TGI [2] was > 100 µM, the TGI [3] was > 100 µM and the TGI [4] was > 100 µM. The TGI [6] was > 100 µM.

Compound `COc1ccc(C2=C(Cl)c3cc(OC)c(OC)cc3C2Cl)cc1OC` (configuration not stated) has a TGI [1] of 55.6 µM, a TGI [2] of 29.5 µM and a TGI [3] of 30.4 µM. The TGI [5] was 44.4 µM and the TGI [6] was 31.7 µM.

`CN(C)c1ccc(C=C2C(=O)OC(C)(C)OC2=O)cc1Br` was tested, and the TGI [1] was > 100 µM, the TGI [2] was > 100 µM and the TGI [3] was > 100 µM. The TGI [4] was > 100 µM, the TGI [5] was > 100 µM and the TGI [6] was > 100 µM.

`Cc1cc(N(CCC#N)CCC#N)ccc1/C=C/C(=O)Nc1cccc(Cl)c1` was tested, and the TGI [2] was > 100 µM, the TGI [3] was > 100 µM and the TGI [4] was > 100 µM. The TGI [5] was > 100 µM and the TGI [6] was > 100 µM.

For `COc1ccc(N=c2ssc3c(=S)ssc23)cc1`, the TGI [3] was 74.4 µM, the TGI [4] was 31.9 µM and the TGI [6] was > 100 µM.

For `CSCC1CC(c2ccc(Cl)cc2)=NO1` (configuration not stated), the TGI [1] was > 100 µM, the TGI [2] was > 100 µM and the TGI [3] was > 100 µM. The TGI [4] was > 100 µM, the TGI [5] was > 100 µM and the TGI [6] was > 100 µM.

In the case of `CC(=O)C1=CSC2[C@H](NC(=O)Cc3ccccc3)C(=O)N2C1C(=O)OC(c1ccccc1)c1ccccc1` (some centres not stated), the TGI [3] is reported as > 100 µM, the TGI [4] is reported as > 100 µM and the TGI [5] is reported as > 100 µM. For the same compound, the TGI [6] was > 100 µM.

`CCOC1(COP(=O)(OCc2ccccc2)OCc2ccccc2)COC(COP(=O)(OCc2ccccc2)OCc2ccccc2)(OCC)CO1` (configuration not stated) was tested, and the TGI [1] was > 100 µM, the TGI [2] was > 100 µM and the TGI [3] was > 100 µM. The TGI [4] was > 100 µM, the TGI [5] was > 100 µM and the TGI [6] was > 100 µM.

For `O=C1OC(CCCl)(c2ccccc2)CC1CN1CCOCC1` (configuration not stated), the TGI [2] was > 100 µM, the TGI [4] was 33.7 µM and the TGI [6] was 45.6 µM.

In the case of `CCOC(=O)C1=C(O)C(=O)c2ccsc2C1=O`, the TGI [1] is reported as > 100 µM, the TGI [2] is reported as > 100 µM and the TGI [3] is reported as > 100 µM. It also gave a TGI [6] of 40.5 µM.

For `COc1ccc(OC)c(NC(=O)CCC/C(CC(=O)c2ccc(O)c(OC)c2)=N\NC(=O)C[N+](C)(C)C)c1`, the TGI [1] was > 100 µM, the TGI [2] was > 100 µM and the TGI [3] was > 100 µM. For the same compound, the TGI [4] was > 100 µM, the TGI [5] was > 100 µM and the TGI [6] was > 100 µM.

For `CN(C)c1nc(=Nc2ccc3ccccc3c2)ss1`, the TGI [1] was > 100 µM, the TGI [2] was > 100 µM and the TGI [4] was > 100 µM.

With `CCOC(=O)C(=O)Nc1c(CC)cccc1C(C)C` the TGI [2] was > 100 µM, the TGI [3] was > 100 µM and the TGI [4] was > 100 µM. For the same compound, the TGI [6] was > 100 µM.

With `Cc1cc2c(C)n(Cc3ccc(Cl)cc3Cl)nc2c(C#N)c1C` the TGI [1] was > 91.6 µM, the TGI [2] was > 56.9 µM and the TGI [3] was > 100 µM. For the same compound, the TGI [4] was > 100 µM and the TGI [6] was > 100 µM.

For `CNC(=O)OCc1c(COC(=O)NC)c(C)n(-c2ccc(Br)cc2)c1C`, the TGI [7] was 32 µM.

With `COc1cc(C(=O)C/C(CCC(=O)Nc2ccccc2[N+](=O)[O-])=N\NC(=O)CC#N)ccc1O` the TGI [1] was > 100 µM, the TGI [2] was > 100 µM and the TGI [3] was > 100 µM. For the same compound, the TGI [4] was > 100 µM, the TGI [5] was > 100 µM and the TGI [6] was > 100 µM.

For `Cn1c(/C=C(\O)c2ccc(Cl)cc2)nc2ccccc21`, the TGI [2] was 95.6 µM, the TGI [4] was > 100 µM and the TGI [5] was > 100 µM. The TGI [6] was > 100 µM.

Compound `CCOc1ccc2nc(NC(=O)c3c/c(=N\NC(=O)C[N+](C)(C)C)c4ccc(O)cc4o3)sc2c1` has a TGI [1] of 5.05 µM, a TGI [2] of 10 µM and a TGI [3] of 28.7 µM. For the same compound, the TGI [4] was 4.45 µM, the TGI [5] was 26.8 µM and the TGI [6] was 0.501 µM.

In the case of `CCOC(=O)c1nc2ccc([N+](=O)[O-])cc2c2c1CCO2`, the TGI [1] is reported as > 100 µM, the TGI [2] is reported as > 100 µM and the TGI [3] is reported as > 100 µM. The TGI [4] was > 100 µM, the TGI [5] was > 100 µM and the TGI [6] was > 100 µM.

In the case of `COc1ccc(C(OCC2OC(n3ccc(NC(=O)c4ccccc4)nc3=O)C(O)C2O)(c2ccccc2)c2ccccc2)cc1` (configuration not stated), the TGI [7] is reported as 3.79 µM.

Source: PubChem BioAssay (NCI)
